Active and inactive are the calls of the source. No cut-off for these calls is given here.
Target: Serine/threonine-protein kinase PAK 1 (Homo sapiens, UniProt Q13153)
Test: Inhibition of PAK1 (unknown origin) […] measured after 40 mins by ADP-glo kinase assay

Chain of Serine/threonine-protein kinase PAK 1 (Q13153 whole entry): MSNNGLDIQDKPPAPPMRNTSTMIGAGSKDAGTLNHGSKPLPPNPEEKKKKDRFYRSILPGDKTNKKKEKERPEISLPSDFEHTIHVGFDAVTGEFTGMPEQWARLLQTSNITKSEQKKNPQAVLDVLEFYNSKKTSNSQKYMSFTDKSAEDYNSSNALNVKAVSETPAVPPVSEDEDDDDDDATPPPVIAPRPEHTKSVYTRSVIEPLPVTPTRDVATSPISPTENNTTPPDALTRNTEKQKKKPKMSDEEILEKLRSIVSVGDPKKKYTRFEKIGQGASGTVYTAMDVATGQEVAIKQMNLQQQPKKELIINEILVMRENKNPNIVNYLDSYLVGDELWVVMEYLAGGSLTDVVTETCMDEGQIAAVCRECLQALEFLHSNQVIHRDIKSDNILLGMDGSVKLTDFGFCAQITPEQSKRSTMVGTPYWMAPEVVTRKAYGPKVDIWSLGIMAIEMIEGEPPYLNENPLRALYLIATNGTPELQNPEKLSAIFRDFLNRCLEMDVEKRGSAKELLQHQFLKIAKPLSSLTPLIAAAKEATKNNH

IC50 [µM] | Compound
9.44 | O=C(c1ccc(Cl)cc1)N1CCC(Nc2ncnc3[nH]ncc23)CC1
6.27 | Cc1cccc(C)c1NC(=O)N1CCC(Nc2ncnc3[nH]ncc23)CC1
29.2 | O=C(c1ccc(Br)cc1)N1CCC(Nc2ncnc3[nH]ncc23)CC1
6.84 | O=C(c1ccccc1Cl)N1CCC(Nc2ncnc3[nH]ncc23)CC1
31.1 | Cc1cc(C)c(C(=O)N2CCC(Nc3ncnc4[nH]ncc34)CC2)c(C)c1
> 50 | O=C(c1ccc(C(F)(F)F)cc1)N1CCC(Nc2ncnc3[nH]ncc23)CC1
6.77 | O=C(c1cccc(Cl)c1Cl)N1CCC(Nc2ncnc3[nH]ncc23)CC1
7.82 | O=C(c1ccc(F)cc1)N1CCC(Nc2ncnc3[nH]ncc23)CC1
17.9 | O=C(Nc1ccc(Br)cc1)N1CCC(Nc2ncnc3[nH]ncc23)CC1
13.8 | COc1ccc(NC(=O)N2CCC(Nc3ncnc4[nH]ncc34)CC2)cc1
33.2 | Cc1ccccc1C(=O)N1CCC(Nc2ncnc3[nH]ncc23)CC1
5.61 | Cc1ccc(C(=O)NC2CCN(c3ncnc4[nH]ncc34)CC2)cc1
39.5 | Cc1ccc(C(=O)N2CCC(Nc3ncnc4[nH]ncc34)CC2)cc1
19.6 | Cc1ccc(NC(=S)N2CCC(Nc3ncnc4[nH]ncc34)CC2)cc1
> 50 | O=C(c1cccc(C(F)(F)F)c1)N1CCC(Nc2ncnc3[nH]ncc23)CC1
17.4 | Cc1ccc(NC(=O)N2CCC(Nc3ncnc4[nH]ncc34)CC2)cc1

Continued, compound first:

Compound | IC50 [µM]
O=C(Nc1ccc(Br)cc1)NC1CCN(c2ncnc3[nH]ncc23)CC1 | 4.03
O=C(Nc1cc(C(F)(F)F)cc(C(F)(F)F)c1)N1CCC(Nc2ncnc3[nH]ncc23)CC1 | 9.32
Cc1ccc(NC(=O)NC2CCN(c3ncnc4[nH]ncc34)CC2)cc1 | 4.71
Cc1ccccc1C(=O)NC1CCN(c2ncnc3[nH]ncc23)CC1 | 6.26
COc1ccc(NC(=O)NC2CCN(c3ncnc4[nH]ncc34)CC2)cc1 | 6.37
S=C(Nc1cccc2ccccc12)N1CCC(Nc2ncnc3[nH]ncc23)CC1 | > 50
S=C(Nc1cccc(Cl)c1)N1CCC(Nc2ncnc3[nH]ncc23)CC1 | 7.89
Cc1cccc(C)c1NC(=O)NC1CCN(c2ncnc3[nH]ncc23)CC1 | 2.16
O=C(Nc1ccc(Cl)c(Cl)c1)NC1CCN(c2ncnc3[nH]ncc23)CC1 | 2.29
O=C(Nc1ccc(Cl)c(Cl)c1)N1CCC(Nc2ncnc3[nH]ncc23)CC1 | 10.8
O=C(Nc1cccc(Cl)c1)NC1CCN(c2ncnc3[nH]ncc23)CC1 | 1.24
O=C(NC1CCN(c2ncnc3[nH]ncc23)CC1)c1ccc(F)cc1 | 4.54
O=C(NC1CCN(c2ncnc3[nH]ncc23)CC1)c1ccc(C(F)(F)F)cc1 | 5.74
O=C(NC1CCN(c2ncnc3[nH]ncc23)CC1)c1cccc(Cl)c1Cl | 4.17
O=C(Nc1ccc(F)cc1F)NC1CCN(c2ncnc3[nH]ncc23)CC1 | 1.14
O=C(Nc1ccc(F)cc1F)N1CCC(Nc2ncnc3[nH]ncc23)CC1 | 5.17
O=C(Nc1ccc(C(F)(F)F)cc1)N1CCC(Nc2ncnc3[nH]ncc23)CC1 | 15.8

Compound | IC50 [µM]
FC(F)(F)c1cc(NC(=S)N2CCC(Nc3ncnc4[nH]ncc34)CC2)cc(C(F)(F)F)c1 | 8.71
S=C(Nc1ccccc1Cl)N1CCC(Nc2ncnc3[nH]ncc23)CC1 | 6.67
Cc1cc(C)c(C(=O)NC2CCN(c3ncnc4[nH]ncc34)CC2)c(C)c1 | 6.77
O=C(NC1CCN(c2ncnc3[nH]ncc23)CC1)c1ccccc1Cl | 5.24
O=C(Nc1ccccc1Cl)N1CCC(Nc2ncnc3[nH]ncc23)CC1 | 5.24
O=C(NC1CCN(c2ncnc3[nH]ncc23)CC1)c1cccc(C(F)(F)F)c1 | 2.51
O=C(Nc1ccc(C(F)(F)F)cc1)NC1CCN(c2ncnc3[nH]ncc23)CC1 | 7.15
O=C(Nc1cccc2ccccc12)N1CCC(Nc2ncnc3[nH]ncc23)CC1 | > 50
O=C(NC1CCN(c2ncnc3[nH]ncc23)CC1)c1ccc(Br)cc1 | 16.4
O=C(Nc1ccc(Cl)cc1Cl)N1CCC(Nc2ncnc3[nH]ncc23)CC1 | 5.46
O=C(Nc1ccccc1Cl)NC1CCN(c2ncnc3[nH]ncc23)CC1 | 0.56
O=C(Nc1cccc(Cl)c1)N1CCC(Nc2ncnc3[nH]ncc23)CC1 | 7.18
COc1ccc(C(=O)NC2CCN(c3ncnc4[nH]ncc34)CC2)cc1 | 8.82
Cc1cccc(C)c1NC(=S)N1CCC(Nc2ncnc3[nH]ncc23)CC1 | 7.36
O=C(Nc1cccc2ccccc12)NC1CCN(c2ncnc3[nH]ncc23)CC1 | 11.1
COc1ccc(NC(=S)N2CCC(Nc3ncnc4[nH]ncc34)CC2)cc1 | 15.1

System: MDA-MB-231
Test: Down regulation of PAK1 expression in human MDA-MB-231 cells at 5 uM measured after 24 hrs by immunofluorescence analysis
Assay type: functional, cell-based

Compound | Activity
CCn1c(=O)c(-c2ccc(-c3cncs3)cc2Cl)cc2cnc(Nc3ccc(N4CCN(C)CC4)cc3)nc21 | Active

Source: ChEMBL document CHEMBL4765282, “Design, synthesis and biological evaluation of 1H-pyrazolo [3,4-d]pyrimidine derivatives as PAK1 inhibitors that trigger apoptosis, ER stress and anti-migration effect in MDA-MB-231 cells” (Eur J Med Chem, 2020)
